Reference: US20130310384A1, “Sulfonamide-Containing Compounds” (THE BRIGHAM AND WOMEN'S HOSPITAL, INC., priority 2010, published 2013)

melting point [°C] | SMILES
86 to 88 | O=C(O)c1ccc(CN([C@H](CO)c2ccccc2)S(=O)(=O)c2ccc(Cl)cc2)cc1 (hydrate or solvate) [Example 95, (S)-4-((4-Chloro-N-(2-hydroxy-1-phenylethyl)phenylsulfonamido)methyl)benzoic acid]
61 to 63 | CC[C@@H](c1ccccc1)N(Cc1ccc(S(C)(=O)=O)cc1)S(=O)(=O)c1ccc(Cl)cc1 [Example 2, (S)-4-Chloro-N-(4-(methylsulfonyl)benzyl)-N-(1phenylpropyl)benzenesulfonamide]
108 to 110 | CC[C@@H](c1ccccc1)N(Cc1ccc(C(=O)OC)cc1)S(=O)(=O)c1ccc(Cl)cc1 [Example 3, (S)-Methyl 4-((4-chloro-N-(1-phenylpropyl)phenylsulfonamido)methyl)benzoate]
104 to 106 | COC(=O)c1ccc(CN([C@@H](CO)c2ccccc2)S(=O)(=O)c2ccc(Cl)cc2)cc1 [Example 7, (R)-Methyl 4-((4-chloro-N-(2-hydroxy-1-phenylethyl)phenylsulfonamido)methyl)benzoate]
105 to 106 | COC(=O)c1ccc(CN([C@@H](C)c2ccccc2)S(=O)(=O)c2ccc(Cl)cc2)cc1 [Example 12, (S)-Methyl 4-((4-chloro-N-(1-phenylethyl)phenylsulfonamido)methyl)benzoate]
70 to 72 | CC[C@@H](c1ccccc1)N(Cc1ccc(C(=O)OC)cc1)S(=O)(=O)c1ccc(C(F)(F)F)cc1 [Example 18, (S)-Methyl 4-((N-(1-phenylpropyl)-4-(trifluoromethyl)phenylsulfonamido)methyl)benzoate]
107 to 109 | CC[C@@H](c1ccccc1)N(Cc1ccc(C(=O)OC)cc1)S(=O)(=O)c1ccc(F)cc1 [Example 21, (S)-Methyl 4-((4-fluoro-N-(1-phenylpropyl)phenylsulfonamido)methyl)benzoate]
176 to 178 | CC[C@@H](c1ccccc1)N(Cc1ccc(C(=O)O)cc1OC)S(=O)(=O)c1ccc(Cl)cc1 [Example 23, (S)-4-((4-Chloro-N-(1-phenylpropyl)phenylsulfonamido)methyl)-3-methoxybenzoic acid]
105 to 107 | CCC(c1ccccc1)N(Cc1ccc(C(=O)OC)cc1)S(=O)(=O)c1ccc(Cl)cc1 (stereo not shown) [Example 25, Methyl 4-((4-chloro-N-(1-phenylpropyl)phenylsulfonamido)methyl)benzoate]
82 to 84 | CCC(c1ccccn1)N(Cc1ccc(C(=O)OC)cc1)S(=O)(=O)c1ccc(F)cc1 (stereo not shown) [Example 26, Methyl 4-((4-fluoro-N-(1-(pyridin-2-yl)propyl)phenylsulfonamido)methyl)benzoate]
95 to 97 | CCC(c1ccc(F)cc1)N(Cc1ccc(C(=O)OC)cc1)S(=O)(=O)c1ccc(Cl)cc1 (stereo not shown) [Example 30, Methyl 4-((4-chloro-N-(1-(4-fluorophenyl)propyl)phenylsulfonamido)methyl)benzoate]
166 to 168 | CCC(CC)N(Cc1ccc(S(C)(=O)=O)cc1)S(=O)(=O)c1ccc(Cl)cc1 [Example 31, 4-Chloro-N-(4-(methylsulfonyl)benzyl)-N-(pentan-3-yl)benzenesulfonamide]
78 to 80 | CCC(CC)N(Cc1ccc(C(=O)OC)cc1)S(=O)(=O)c1ccc(F)cc1 [Example 32, Methyl 4-((4-fluoro-N-(pentan-3-yl)phenylsulfonamido)methyl)benzoate]
123 to 125 | CCC(CC)N(Cc1ccc(C#N)cc1)S(=O)(=O)c1ccc(Cl)cc1 [Example 33, 4-Chloro-N-(4-cyanobenzyl)-N-(pentan-3-yl)benzenesulfonamide]
117 to 119 | CCC(CC)N(Cc1ccc(C(=O)OC)cn1)S(=O)(=O)c1ccc(F)cc1 [Example 34, Methyl 6-((4-fluoro-N-(pentan-3-yl)phenylsulfonamido)methyl)nicotinate]
106 to 108 | CCC(CC)N(Cc1ccc(C(=O)OC)cc1)S(=O)(=O)c1ccc(C)cc1 [Example 35, Methyl 4-((4-methyl-N-(pentan-3-yl)phenylsulfonamido)methyl)benzoate]
102 to 104 | CCC(CC)N(Cc1ccc(C#N)cc1F)S(=O)(=O)c1ccc(F)cc1 [Example 36, N-(4-Cyano-2-fluorobenzyl)-4-fluoro-N-(pentan-3-yl)benzenesulfonamide]
145 to 147 | CCC(CC)N(Cc1ccc(C(=O)O)cn1)S(=O)(=O)c1ccc(F)cc1 [Example 37, 6-((4-Fluoro-N-(pentan-3-yl)phenylsulfonamido)methyl)nicotinic acid]
95 to 97 | CCC(CC)N(Cc1ccc(C(=O)OC)cc1)S(=O)(=O)c1ccc(Cl)cc1 [Example 40, Methyl 4-((4-chloro-N-(pentan-3-yl)phenylsulfonamido)methyl)benzoate]
103 to 105 | COC(=O)c1ccc(CN(C(CF)CF)S(=O)(=O)c2ccc(F)cc2)cc1 [Example 41]

melting point [°C] | SMILES
134 to 135 | COC(=O)c1ccc(CN(C(CO)CO)S(=O)(=O)c2ccc(Cl)s2)cc1 [Example 42, Methyl 4-((5-chloro-N-(1,3-dihydroxypropan-2-yl)thiophene-2-sulfonamido)methyl)benzoate]
66 to 67 | CC(C)N(Cc1ccc(Cl)c(Cl)c1)S(=O)(=O)c1ccc(Cl)s1 [Example 43, 5-Chloro-N-(3,4-dichlorobenzyl)-N-isopropylthiophene-2-sulfonamide]
110 to 112 | COC(=O)c1ccc(CN(C(C)C)S(=O)(=O)c2ccc(Cl)cc2)cc1 [Example 44, Methyl 4-((4-chloro-N-isopropylphenylsulfonamido)methyl)benzoate]
118 to 120 | COC(=O)c1ccc(CN(C(C)C)S(=O)(=O)c2ccc(F)cc2)cc1 [Example 45, Methyl 4-((4-fluoro-N-isopropylphenylsulfonamido)methyl)benzoate]
133 to 135 | CC(C)N(Cc1ccc(Cl)c(Cl)c1)S(=O)(=O)c1cc2ccccc2s1 [Example 48, N-(3,4-Dichlorobenzyl)-N-isopropylbenzo[b]thiophene-2-sulfonamide]
85 to 87 | O=C(O)c1ccc(CN([C@@H](CO)c2ccccc2)S(=O)(=O)c2ccc(Cl)cc2)cc1 [Example 51, (R)-4-((4-Chloro-N-(2-hydroxy-1-phenylethyl)phenylsulfonamido)methyl)benzoic acid]
118 to 120 | CC[C@@H](c1ccccc1)N(Cc1ccc(C(=O)O)cc1F)S(=O)(=O)c1ccc(Cl)cc1 [Example 52, (S)-4-((4-Chloro-N-(1-phenylpropyl)phenylsulfonamido)methyl)-3-fluorobenzoic acid]
163 to 165 | O=C(O)c1ccc(CN(C(CO)CO)S(=O)(=O)c2ccc(Cl)s2)cc1 [Example 53, 4-((5-Chloro-N-(1,3-dihydroxypropan-2-yl)thiophene-2-sulfonamido)methyl)benzoic acid]
108 to 110 | CCC(c1ccc(C(F)(F)F)cc1)N(Cc1ccc(C(=O)O)cc1)S(=O)(=O)c1ccc(Cl)cc1 (stereo not shown) [Example 54, 4-((4-Chloro-N-(1-(4-(trifluoromethyl)phenyl)propyl)phenylsulfonamido)methyl)benzoic acid]
65 to 67 | CC[C@@H](c1ccccc1)N(Cc1cccc(C(=O)O)c1)S(=O)(=O)c1ccc(Cl)cc1 [Example 59, (S)-3-((4-Chloro-N-(1-phenylpropyl)phenylsulfonamido)methyl)benzoic acid]
136 to 139 | CC[C@@H](c1ccccc1)N(Cc1ccc(C(=O)NCC(=O)O)cc1)S(=O)(=O)c1ccc(Cl)cc1 [Example 64, (S)-2-(4-((4-Chloro-N-(1-phenylpropyl)phenylsulfonamido)methyl)benzamido)acetic acid]
108 to 110 | CCC(CC)N(Cc1ccc(C#N)nc1)S(=O)(=O)c1ccc(Cl)cc1 [Example 72]
118 to 120 | CCC(CC)N(Cc1ccc(C#N)nc1)S(=O)(=O)c1ccc(F)cc1 [Example 73, N-((6-Cyanopyridin-3-yl)methyl)-4-fluoro-N-(pentan-3-yl)benzenesulfonamide]
78 to 80 | CC[C@@H](c1ccccc1)N(Cc1ccc(C(=O)NC[C@H](C)O)cc1)S(=O)(=O)c1ccc(Cl)cc1 [Example 80, 4-((4-Chloro-N—((S)-1-phenylpropyl)phenylsulfonamido)methyl)-N-((S)-2-hydroxypropyl)benzamide]
120 to 121 | CC[C@@H](c1ccc(C#N)cc1)N(Cc1ccc(C#N)cc1)S(=O)(=O)c1ccc(Cl)cc1 [Example 84, (S)-4-Chloro-N-(4-cyanobenzyl)-N-(1-(4-cyanophenyl)propyl)benzenesulfonamide]
111 to 113 | CCC(c1ccc(Cl)nc1)N(Cc1ccc(C(=O)O)cc1)S(=O)(=O)c1ccc(Cl)cc1 (stereo not shown) [Example 89, 4-((4-Chloro-N-(1-(6-chloropyridin-3-yl)propyl)phenylsulfonamido)methyl)benzoic acid]
128 to 130 | COC(=O)c1ccc(CN([C@@H](CO)Cc2ccccc2)S(=O)(=O)c2ccc(Cl)cc2)cc1 [Example 94, (R)-Methyl 4-((4-chloro-N-(1-hydroxy-3-phenylpropan-2-yl)phenylsulfonamido)-methyl)benzoate]
132 to 133 | CC[C@@H](c1ccc(C#N)cc1)N(Cc1ccc(C(=O)O)cc1)S(=O)(=O)c1ccc(Cl)cc1 [Example 103, (S)-4-((4-Chloro-N-(1-(4-cyanophenyl)propyl)phenylsulfonamido)methyl)benzoic acid]
120 to 121 | CC[C@@H](c1ccccc1)N(Cc1ccc(C(=O)N2CCC[C@@H]2CO)cc1)S(=O)(=O)c1ccc(Cl)cc1 [Example 104, 4-Chloro-N-(4-((R)-2-(hydroxymethyl)pyrrolidine-1-carbonyl)benzyl)-N-((S)-1-phenylpropyl)benzenesulfonamide]
98 to 99 | CC[C@@H](c1ccccc1)N(Cc1ccc(C(=O)OC)cc1)S(=O)(=O)c1ccc(Cl)c(Cl)c1 [Example 114, (S)-Methyl 4-((3,4-dichloro-N-(1-phenylpropyl)phenylsulfonamido)methyl)benzoate]
